Experimental data published in PubChem BioAssay (NCI).
“And” between values parts separate entries of the source, which are not always exact repeats. Equal values may be shown once.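 Following 48 hours of exposure in 96-well plates, responses at five concentrations were used to interpolate endpoints linearly. At the GI50, growth is halved. TGI denotes the concentration required for complete inhibition of growth.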

What was measured:
Assay in all cases: growth of human tumour cells (NCI), 48 h
HCT-116 colon = tested on: HCT-116 colon
MALME-3M melanoma = tested on: MALME-3M melanoma
NCI-H23 lung = tested on: NCI-H23 lung
SR leukemia = tested on: SR leukemia
UO-31 renal = tested on: UO-31 renal
SK-OV-3 ovarian = tested on: SK-OV-3 ovarian
SNB-75 CNS = tested on: SNB-75 CNS
MDA-MB-435 = tested on: MDA-MB-435
MDA-MB-231 breast = tested on: MDA-MB-231 breast
T-47D breast = tested on: T-47D breast

SMILES	TGI (HCT-116 colon)	TGI (MALME-3M melanoma)	TGI (NCI-H23 lung)	TGI (SR leukemia)	TGI (UO-31 renal)	TGI (SK-OV-3 ovarian)	TGI (SNB-75 CNS)	GI50 (HCT-116 colon)	GI50 (MDA-MB-435)	TGI (MDA-MB-435)	GI50 (NCI-H23 lung)	GI50 (SR leukemia)	GI50 (UO-31 renal)	GI50 (SK-OV-3 ovarian)	GI50 (MDA-MB-231 breast)	TGI (MDA-MB-231 breast)	GI50 (SNB-75 CNS)	GI50 (MALME-3M melanoma)	GI50 (T-47D breast)	TGI (T-47D breast)
Nc1ccc2n[se]nc2c1	> 100 µM	> 100 µM	> 100 µM	> 100 µM	> 100 µM	> 100 µM	> 100 µM													
CCCCC1=CSC(c2ccccc2)=C(c2ccccc2)S1	> 100 µM		> 100 µM		> 100 µM	> 100 µM	> 100 µM													
COC(=O)CCSC(=O)Nc1ccc(N=Nc2ccccc2)cc1	> 100 µM	> 100 µM	92 µM	> 100 µM	> 100 µM	> 100 µM	> 100 µM													
CCOC(=O)c1c(-c2ccccc2)[n+](=O)c2cc(Cl)c(Cl)cc2n1[O-]	11.1 µM		25.8 µM	> 100 µM	> 100 µM	33.6 µM	30.2 µM	2570 nM	5360 nM	19 µM	10.1 µM	0.529 µM	3.03 µM	18.5 µM	2.09 µM	5.55 µM	8.7 µM			
Nc1nnc2c(-c3ccccc3)[nH]nc2n1	> 100 µM		> 100 µM	> 100 µM	> 100 µM															
COc1cc2c(c(OC)c1OC)-c1ccc(NN(C(=O)c3ccccc3)C(=O)c3ccccc3)c(=O)cc1[C@@H](NC(C)=O)CC2 (tested in a mixture with another compound)	8.88 µM	> 100 µM	37.6 µM	> 100 µM	41.6 µM	8.77 µM	> 100 µM	2950 nM			3.91 µM	3.76 µM	4.59 µM	2.65 µM	3.39 µM	> 100 µM	5.08 µM	17.6 µM	4.71 µM	42 µM
Cc1ccc(NC(=O)CCc2nc(=S)[nH][nH]2)cc1	> 100 µM	> 100 µM	> 100 µM	> 100 µM	> 100 µM	> 100 µM	> 100 µM													
O=[N+]([O-])c1ccc(C2=Nc3ccccc3S(=O)C(c3ccccc3)C2)cc1 (stereo not drawn)		> 100 µM	36.3 µM		32.2 µM	73.6 µM	53.3 µM													
CCOc1ccccc1N=Nc1ccc2oc(=O)c(C(C)=O)cc2c1	> 100 µM	> 100 µM	> 100 µM		> 100 µM	> 100 µM	43.2 µM													
CC(=O)OCC1OC(n2c(=S)n(-c3ccc([N+](=O)[O-])cc3)c(=O)c3ccccc32)C(OC(C)=O)C(OC(C)=O)C1OC(C)=O (stereo not drawn)	> 100 µM	38.4 µM	> 83.2 µM and 46.4 µM	> 100 µM	> 57.5 µM and 60.1 µM	60.1 µM and 50.1 µM	51 µM and 41.2 µM	18100 nM and 25200 nM		> 100 µM		4.67 µM	12 µM and 23.2 µM				7.28 µM and 19 µM			74.3 µM
COC(=O)C(=O)Cc1nc2ccccc2s1	> 100 µM	> 100 µM	> 100 µM	> 100 µM	> 100 µM	> 100 µM	> 100 µM													
Cn1c(CBr)nc2c1C(=O)c1nc(CBr)[nH]c(=O)c1C2=O	> 100 µM		> 100 µM		> 100 µM	> 100 µM														
CC(C)(CN1C(=O)C(Cl)=C(Cl)C1=O)CN1C(=O)C(Cl)=C(Cl)C1=O	27.9 µM	16.7 µM	21 µM	36 µM	47.2 µM	> 58.9 µM	50.7 µM													
O=C(O/N=C1\CCCC\C1=C/c1ccccc1)c1ccc([N+](=O)[O-])cc1	> 100 µM	> 100 µM	> 100 µM	> 100 µM	> 100 µM	> 100 µM	> 100 µM													
O=S1(=O)N2CN3CN(C2)CN1C3	44.4 µM and 76.6 µM	324 µM	44.3 µM		410 µM	868 µM	69.2 µM	26600 nM												
Cc1ccc(NC(=O)CCCC(=O)CC(=O)c2ccc(Br)cc2)cc1	> 100 µM	> 100 µM	> 100 µM	> 100 µM	> 100 µM	> 100 µM	> 100 µM													
N#CCCn1[nH]c(=O)c(Cl)c(Cl)c1=O	29.1 µM	33 µM	29.3 µM	35.5 µM	34.7 µM		26.7 µM													
CC1(C)CCC(Sc2ccccc2)O1 (stereo not drawn)	> 100 µM		> 100 µM	> 100 µM	> 100 µM	> 100 µM	> 100 µM													
CC(C)/C=C1\CCC(CN(C)C)C1=O (stereo not drawn)	2.5 µM	2.29 µM	25.4 µM	4.53 µM	16.5 µM	32.4 µM	6.51 µM			3.01 µM						3.01 µM				

SMILES	TGI (HCT-116 colon)	TGI (MALME-3M melanoma)	TGI (NCI-H23 lung)	TGI (SR leukemia)	TGI (UO-31 renal)	TGI (SK-OV-3 ovarian)	TGI (SNB-75 CNS)	GI50 (HCT-116 colon)	GI50 (MDA-MB-435)	TGI (MDA-MB-435)	GI50 (NCI-H23 lung)	GI50 (SR leukemia)	GI50 (UO-31 renal)	GI50 (SK-OV-3 ovarian)	GI50 (MDA-MB-231 breast)	TGI (MDA-MB-231 breast)	GI50 (SNB-75 CNS)	GI50 (MALME-3M melanoma)	GI50 (T-47D breast)	TGI (T-47D breast)
O=C1c2ccccc2C(=O)c2cc3c(cc21)CS(=O)C3		> 100 µM	> 100 µM		> 100 µM	> 100 µM	> 100 µM													
O=C(c1ccc(O)cc1O)C1C(c2ccc(O)cc2)OC(c2ccc(O)cc2)C1C(=O)c1ccc(O)cc1O (stereo not drawn)		31.2 µM	74.2 µM		76.9 µM		42.1 µM													
COc1ccccc1NC(=O)C1=C(C)NC(C)=C(C(=O)Nc2ccccc2OC)C1c1ccccc1[N+](=O)[O-]	> 100 µM	36.2 µM	43.6 µM	39.6 µM	37.6 µM	68 µM	> 100 µM													
O=C1[C@@H]2C(c3ccc(Br)cc3)=NO[C@@H]2C(=O)N1c1ccc(Cc2ccc(N3C(=O)[C@H]4C(c5ccc(Br)cc5)=NO[C@H]4C3=O)cc2)cc1	> 40 µM	> 40 µM	> 3.48 µM	> 40 µM	> 40 µM	> 3.48 µM	> 40 µM						> 40 µM				> 40 µM	> 40 µM		
CN=c1ss/c(=N\C(=S)N(C)C)n1C	> 100 µM	> 100 µM	> 100 µM	> 100 µM	> 100 µM	> 100 µM	> 100 µM													
COc1cc(C2c3cc4c(cc3[C@@H](NCCN(C)C)C3COC(=O)[C@H]23)OCO4)cc(OC)c1O (stereo partly drawn)	2.18 µM and 3.79 µM	1.61 µM and 2.3 µM	0.673 µM and 1.41 µM	> 100 µM	0.633 µM and 1.32 µM	0.565 µM and 0.649 µM	0.674 µM	272 nM and 715 nM			0.103 µM and 0.228 µM	14.4 µM		0.0393 µM and 0.103 µM						
C[C@H]1CC[P+](Cc2ccccc2)(c2ccccc2)C1 (stereo partly drawn)	> 100 µM	> 100 µM	> 100 µM	> 100 µM	> 100 µM	> 100 µM	> 100 µM													
COc1ccc(-c2cc(=O)c3c(O)c(OC)c(OC)c(OC)c3o2)cc1OC	> 100 µM	> 100 µM	> 100 µM	> 100 µM	> 100 µM	81 µM										> 100 µM				> 100 µM
Nc1nncc2c1c(Br)cn2C1OC(CO)C(O)C1O (stereo not drawn)	> 100 µM	> 100 µM	> 67.6 µM	> 100 µM	> 100 µM	> 100 µM	> 100 µM													
CN(C)CCNC(=O)c1cccc2c1nc(-c1ccc(F)cc1)c1ccccc12	13.4 µM		18.6 µM		4.51 µM	21.1 µM	22.8 µM													
CC(=O)C1CCN(c2ccccc2)C1 (stereo not drawn)	> 100 µM		> 100 µM	> 100 µM	> 100 µM	> 100 µM	> 100 µM													
CC(C)(C)c1cc(CCC(=O)Nc2ccc(Cl)cc2)[nH]c(=S)n1		> 100 µM	> 100 µM		> 100 µM	> 100 µM	> 100 µM													
COC1C2C[C@@H](O)CCC2C(C(=O)OCCl)C[C@H]1O (stereo partly drawn)	> 100 µM	> 100 µM		> 100 µM	> 100 µM	> 100 µM	> 100 µM													
COC1=C(N)C(=O)c2nc(-c3nc(C(=O)O)c(C)c(-c4ccc(OC)c(OC)c4O)c3N)ccc2C1=O					0.02 µM and 0.0176 µM	0.0272 µM and 0.0174 µM		13.9 nM and 3.57 nM	26.6 nM and 10.4 nM				< 0.01 µM							
NC(=O)c1ccc2c(c1)-c1nc-2nc2[n-]c(nc3nc(nc4[n-]c(n1)c1ccc(C(N)=O)cc41)-c1ccc(C(N)=O)cc1-3)c1ccc(C(N)=O)cc21.[Co+2]	> 50 µM	> 50 µM	> 50 µM	> 50 µM		> 50 µM	> 50 µM	> 50000 nM			> 50 µM	33.3 µM		> 50 µM			> 50 µM	> 50 µM		
CCOC(=O)CSc1cc(Cl)c(C)cc1S(=O)(=O)/N=C(/N=C/c1ccc([N+](=O)[O-])s1)NNC	26.3 µM	55.3 µM	37.2 µM		> 100 µM	67.1 µM		13500 nM	16300 nM	37.6 µM	14.5 µM		36.6 µM	24.3 µM	11.7 µM	29.7 µM		19.9 µM	12.5 µM	40.1 µM
NC1NC=NC2C1N=CN2C1OC(CO)C2[O][Sn][O]C21 (stereo not drawn)	> 100 µM	> 100 µM	> 100 µM		> 100 µM	> 100 µM	> 100 µM	> 100000 nM			> 100 µM		> 100 µM	> 100 µM			> 100 µM	> 100 µM		
CC(C)N(C(=O)C12C3C4C1C1C2C3C41C#N)C(C)C (stereo not drawn)	> 100 µM	> 100 µM	> 100 µM	45 µM	> 100 µM	> 100 µM	> 100 µM													
